The results in this text go back to patent US20190136321A1, “USE OF TRANSLATIONAL PROFILING TO IDENTIFY TARGET MOLECULES FOR THERAPEUTIC TREATMENT” (The Regents of The University of California, priority 2013, published 2019).

Assay [1] has as its system Normal human lung fibroblasts. Kind of assay: Procollagen Type 1 C-Peptide (PIP EIA) in TGF-β treated fibroblasts. It is filed as cell-based. The following applies: 10 ng/ml TGF-β, 24 hours. Here is the method: Normal human lung fibroblasts (Lonza #CC-2512) were cultured in DMEM+10% FBS supplemented with Penicillin, Streptomycin and Glutamax (Invitrogen) at 37° C. in a humidified incubator with 5% CO2. Cell passage numbers 2 through 5 were used for all experiments.
(§1) On Day 0, fibroblasts were seeded and cultured under normal conditions overnight. On Day 1, media was removed, cells were washed with PBS and then incubated for 48 hrs in serum free media (DMEM supplemented with penicillin, streptomycin, and glutamax). On Day 3, media was removed and cells were cultured for 24 hrs with fresh serum free media ±PAMi and ±10 ng/ml TGF-β. After this 24 hour incubation, about 6×10^6 cells/10 cm plate and about 1×10^6 cells/well of a 6-well plate were used for ribosomal profiling and western blot analysis, respectively.
Culture Media was collected, centrifuged to pellet cellular debris, and stored at −80° C. Procollagen Type 1 C-Peptide (PIPC) was quantified using the (PIP) EIA kit (Clontech Cat# MK101) according to manufacturer's instructions.

Assay [2] concerns Normal human lung fibroblasts. Put plainly: Ribosomal profiling of TGF-β treated fibroblasts. In kind it is cell-based. On the procedure: as §1
Cells were washed with cold PBS supplemented with cycloheximide and lysed with 1× mammalian lysis buffer for 10 min on ice. Lysates were clarified by centrifugation for 10 min at 14,000 rpm and supernatants were collected. Cell lysates were processed to generate the ribosomal protected fragments and total mRNA according to the instructions included with the ARTseq Ribosome Profiling Kit. Sequencing of total RNA (RNA) and of ribosome-protected fragments of RNA (RPF) was carried out with standard Illumina rna seq methodology.
RNA-seq reads were processed with tools from the FASTX-Toolkit (fastq_quality_trimmer, fastx_clipper and fastx_trimmer). Unprocessed and processed reads were evaluated for a variety of quality measures using FastQC. Processed reads were mapped to the human genome using Tophat. Gene-by-gene assessment of the number of fragments strictly and uniquely mapping to the coding region of each gene was conducted using HTSeq-count, a component of the HTSeq package. Differential analyses of the transforming effect of TGF-β on fibroblasts and effect of PAMi treatment on this transformation were carried out with the software packages DESeq for transcription (RNA counts) and translational rate (RPF counts) and BABEL for translational efficiency based upon ribosomal occupancy as a function of RNA level (RNA and RPF counts). Genes with low counts in either RPF or RNA were excluded from differential analyses. Pathway and network analyses of differential data was conducted using Ingenuity Pathway Analysis (IPA).

On to TGF-β, for which the “increase in procollagen production” value in assay [1] is “approximately 7 fold”. The “genes in the pathway having an increase in translational efficiency” value in assay [2] (fibroblasts treated with TGF-β, 141 pathway genes) is on record as 118 of the 141. Besides, the “mean translational efficiency of the 141 pathway-associated genes” value in assay [2] (fibroblasts upon TGF-β treatment) is on record as −1.05 log 2 relative to population mean. Moreover, in assay [2] (fibroblasts, TGF-β), the “mean increase in translational efficiency, all genes in the pathway (printed: these 12 genes)” value was 0.65 log 2 and the “mean increase in translational efficiency, subset of 12 genes” value came out at 1.3 log 2.
